Key:
[1] = cited from earlier work
[2] = cited from earlier work; remark: listed apart in the source
[3] = solution of zero salinity; cited from earlier work
[4] = solution of zero salinity

Which results are given for `O=C1C=C(S(=O)(=O)O)C=C(S(=O)(=O)O)C1=O` [1,2-benzoquinone-3,5-disulfonic acid]?
reported solubility ([1]; organic PCET molecules from the redox-flow battery literature): 3000 mM; chemical stability in water [2]: chemical instability in water

For `O=C(O)O` [carbonic acid], which “K1, first dissociation constant” value [3] is on record?
Its value is 1.1 µM.

What about the “K2, second dissociation constant” value [3] of the same compound?
The value was 410 pM.

And the “first pKa” value [4]?
Its value is 6.0.

And the “second pKa” value [4]?
The value was 9.4.

Which solubility ([1]; in water and in weakly alkaline aqueous solution) does the source give for `c1ccc2nccnc2c1` [quinoxaline] here?
Its solubility is “above 4.0 M”.

From patent US20210060484A1, “PROTON COUPLED ELECTROCHEMICAL CO2 CAPTURE SYSTEM” (President and Fellows of Harvard College, priority 2018, published 2021)
